Data: patent US20230330004A1, “COMPOSITION COMPRISING GINSENG EXTRACT FOR REFORMING SKIN MICROBIOTA” (KOREA GINSENG CORP., priority 2020, published 2023)

How the values were obtained:
[1] = tested on: Staphylococcus aureus (Strain number 39149, Korean Collection for Type Cultures); assay: Growth of harmful skin microbes, absorbance at 600 nm (Experimental Example 2); type: cell-based; settings: incubated 24 hours in shaking incubator
Experimental: (§1) To compare the compositions of Example and Comparative Examples in terms of the increase in growth of beneficial skin microbes versus harmful skin microbes, the growth of each microbe was measured by the same method as described in Experimental Example 1. Specifically, using Staphylococcus epidermidis as beneficial skin microbes, and Staphylococcus aureus (Strain number 39149, Korean Collection for Type Cultures) as harmful skin microbes, samples were inoculated respectively and incubated for 24 hours in a shaking incubator. Solutions with the strains grown therein were each collected and centrifuged, and after removing the supernatant therefrom, an equivalent amount of a saline solution was added to prepare a bacterial solution.

[2] = tested on: Staphylococcus epidermidis; assay: Growth of beneficial skin microbes, absorbance at 600 nm (Experimental Example 2); type: cell-based; settings: for Effect of selectively promoting the growth of beneficial microbes rather than harmful microbes (in words): S. epidermidis versus S. aureus, from Table 2; for Effect of promoting the growth of beneficial microbes (in words): S. epidermidis, compared to the composition of the present invention; for OD600 (Beneficial microbes): Staphylococcus epidermidis, incubated 24 hours in shaking incubator, absorbance at 600 nm; for Increase in beneficial microbes versus harmful microbes: ratio of OD600 S. epidermidis / S. aureus, 24 hours
Experimental: as §1

| Molecule | OD600 (Harmful microbes) [1] | Effect of selectively promoting the growth of beneficial microbes rather than harmful microbes (in words) [2] | Effect of promoting the growth of beneficial microbes (in words) [2] | OD600 (Beneficial microbes) [2] | Increase in beneficial microbes versus harmful microbes [2] |
| --- | --- | --- | --- | --- | --- |
| 3-Sialyllactose [Comparative Example 2] | 0.077 | low | negligible | 0.049 | ×0.636 |
| CC(=O)N[C@H]1[C@H]([C@H](O)[C@H](O)CO)O[C@@](OC[C@H]2O[C@@H](O[C@H]3[C@H](O)[C@@H](O)C(O)O[C@@H]3CO)[C@H](O)[C@@H](O)[C@H]2O)(C(=O)O)C[C@@H]1O (stereo partly shown) [Comparative Example 3, 6-Sialyllactose] | 0.065 | low | negligible | 0.047 | ×0.723 |
